Data reported in BindingDB's records for doi:10.1016/j.bmc.2009.03.061 (Gsk, 2009).

How the values were obtained:
[1] = molecular target: cAMP-specific 3',5'-cyclic phosphodiesterase 4D (Homo sapiens, UniProt Q08499); test: Enzyme Inhibition Assay; conditions: pH 7.5; 23 °C
Protocol: (§1) Inhibition of PDE4 is measured using a luminescence-coupled assay system developed by Cambrex. This assay system couples the formation of AMP, derived from PDE4-catalyzyed hydrolysis of cAMP, to the formation of ATP. The ATP is then used as a substrate for Luciferase and results in light as a signal output. […] This assay is used in a quenched assay format, where PDE4 enzyme and cAMP substrate are added sequentially to a 384 well assay plate (Greiner784075) pre-stamped with compound at the desired concentration. The reaction is incubated at room temperature for 1 h, and then is quenched by the addition of enzyme stop solution and then the light signal is generated by the addition of detection reagent. […] For inhibition curves, compounds were diluted using a 3-fold serial dilution and tested at 11 concentrations. Curves were analysed as describe above using ActivityBase and XLfit , and results were expressed as pIC50 values.

[2] = molecular target: cAMP-specific 3',5'-cyclic phosphodiesterase 4B (Homo sapiens, UniProt Q07343); test: Enzyme Inhibition Assay; conditions: pH 7.5; 23 °C
Sequence of cAMP-specific 3',5'-cyclic phosphodiesterase 4B (Q07343 whole entry): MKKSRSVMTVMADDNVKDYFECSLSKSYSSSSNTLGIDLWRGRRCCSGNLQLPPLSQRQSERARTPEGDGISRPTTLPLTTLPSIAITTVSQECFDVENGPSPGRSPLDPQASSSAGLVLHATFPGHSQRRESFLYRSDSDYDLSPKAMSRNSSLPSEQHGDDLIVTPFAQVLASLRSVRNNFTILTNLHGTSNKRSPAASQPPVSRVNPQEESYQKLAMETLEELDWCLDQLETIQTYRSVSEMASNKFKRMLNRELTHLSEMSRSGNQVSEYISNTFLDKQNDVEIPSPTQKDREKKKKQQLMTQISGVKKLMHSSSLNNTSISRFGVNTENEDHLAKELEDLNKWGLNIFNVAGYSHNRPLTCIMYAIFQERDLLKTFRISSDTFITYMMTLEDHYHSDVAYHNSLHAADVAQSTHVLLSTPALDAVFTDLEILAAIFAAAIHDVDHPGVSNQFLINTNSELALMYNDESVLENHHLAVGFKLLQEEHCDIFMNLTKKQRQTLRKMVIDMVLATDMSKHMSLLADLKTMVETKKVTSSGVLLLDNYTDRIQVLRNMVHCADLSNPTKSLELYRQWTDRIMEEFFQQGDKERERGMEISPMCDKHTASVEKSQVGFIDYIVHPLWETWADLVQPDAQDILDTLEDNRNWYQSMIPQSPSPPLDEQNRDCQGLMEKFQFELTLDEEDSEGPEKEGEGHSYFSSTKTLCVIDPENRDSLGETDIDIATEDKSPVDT
Protocol: as §1

Sequence of cAMP-specific 3',5'-cyclic phosphodiesterase 4D (Q08499 whole entry): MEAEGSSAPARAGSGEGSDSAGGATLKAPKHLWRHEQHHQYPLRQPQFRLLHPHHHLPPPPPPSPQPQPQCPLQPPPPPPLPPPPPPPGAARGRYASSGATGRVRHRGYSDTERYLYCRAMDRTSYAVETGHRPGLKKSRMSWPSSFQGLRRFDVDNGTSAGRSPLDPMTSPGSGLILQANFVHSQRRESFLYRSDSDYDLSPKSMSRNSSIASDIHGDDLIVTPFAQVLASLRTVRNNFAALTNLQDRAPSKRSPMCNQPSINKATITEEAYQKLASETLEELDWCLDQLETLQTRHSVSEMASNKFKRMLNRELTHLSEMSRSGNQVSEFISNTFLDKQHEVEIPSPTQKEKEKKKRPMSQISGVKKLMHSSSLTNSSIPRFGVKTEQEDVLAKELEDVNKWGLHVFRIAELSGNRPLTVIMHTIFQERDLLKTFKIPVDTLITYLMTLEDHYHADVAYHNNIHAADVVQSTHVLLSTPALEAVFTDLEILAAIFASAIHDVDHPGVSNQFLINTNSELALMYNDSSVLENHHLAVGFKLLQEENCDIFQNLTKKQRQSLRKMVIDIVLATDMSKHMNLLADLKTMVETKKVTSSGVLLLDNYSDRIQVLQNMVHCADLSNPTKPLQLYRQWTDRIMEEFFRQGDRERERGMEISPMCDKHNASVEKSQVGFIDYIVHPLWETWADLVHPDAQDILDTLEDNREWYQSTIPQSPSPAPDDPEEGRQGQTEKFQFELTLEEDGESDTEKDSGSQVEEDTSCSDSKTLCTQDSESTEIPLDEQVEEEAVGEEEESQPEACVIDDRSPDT

Row | IC50 [1] [µM] | IC50 [2] [µM] | Structure (SMILES)
1 | 2.51 | 0.1 | CCCC1CCc2c(sc(NC(=O)c3ccccc3[N+](=O)[O-])c2C(N)=O)C1 (centres undefined) [tetrahydrobenzothiophene (THBT), 24]
2 | 2.51 | 5.01 | Cc1cccc(C)c1C(=O)C1CCCc2sc(NC(=O)c3ccccc3[N+](=O)[O-])c(C(N)=O)c21 (centres undefined) [tetrahydrobenzothiophene (THBT), 18]
